Assay results published in patent US20090134028A1, “Method of Estimating Effect of Test Chemical on Living Organisms” (Chemicals Evaluation and Research Institute, priority 2005, published 2009).
Where two headings read alike, the source gives them in different places.

How the values were obtained:
[1] = cited from earlier work
[2] = system: liver cell; details: rat, in vivo
[3] = Prediction of liver cell hypertrophy using SVM from post-translational modification data; design: species or system rat
[4] = system: rat liver protein; test: Two-dimensional gel electrophoresis of liver proteins after 28-day oral administration: difference of log2(αx/αc) between spots derived from one protein; format: in vivo; details: oral 28 days
Experimental: 5-Weeks old male rats (F344, SPF strain) obtained from Charles River Laboratories Japan Inc. were divided into groups each consisting of three rats. To the rats of each chemical dosed group was forcibly administered orally a solution obtained by dissolving one of the chemicals shown in Tables 1 to 3, and to the rats of a vehicle control group was forcibly administered orally only a vehicle. The administration was conducted once a day for 28 days. On the 29th day from the start of administration, the liver of each rat was collected. A fragment was cut out from each liver and stored at −20° C. The protein collected from each rat was determined quantitatively by the Bradford method. Then, to the comparative sample collected from the chemical dosed group, the control sample collected from the vehicle control group, and a pool sample (which was a mixture of the comparative sample and the control sample) were added, at 0° C., Cy5, Cy3 and Cy2 (DMF solution, 1 ml) each of 200 pmol per […] of protein, and a labeling reaction was allowed to take place on ice for 30 minutes. After the completion of the reaction, an excessive amount of a Lysine solution (10 mM Lysis buffer solution, 1 ml) was added, followed by storage for 10 minutes to complete the reaction. Further, a x2 sample buffer [8 M urea, 4% (w/v) CHAPS, 20 mg/ml DTT, 2% (v/v) Pharmalytes] of same volume was added, followed by storage on ice for 10 minutes.
Then, the mixture of the resulting samples or each resulting sample was individually subjected to two-dimensional gel electrophoresis.
First-dimensional electrophoresis was conducted in Multiphor II (GE Helthcare Uk Ltd. Buckinghamshire, UK) using IPG (Immobilized pH Gradient) Strips (24 cm, pI3-10L) (GE Helthcare UK Ltd. Buckinghamshire, UK). A sample ([…] of protein) was added from a cup loading holder. Focussing was conducted by 40 kVh in total. After the electrophoresis, equilibration was made for 10 minutes each using a solution A obtained by adding 0.25% (w/v) of DTT to an equilibrating solution (50 mM Tris, pH 8.8, 6 M urea, 30% glycerol, 2% SDS) and a solution B obtained by adding 4.5% (w/v) of iodoacetamide to the equilibrating solution. Successively, second-dimensional electrophoresis was conducted in an Ettan DALT II system (GE Helthcare UK Ltd. Buckinghamshire, UK) using a self-made 12% uniform gel sandwiched between low-fluorescent glasses. Migration was conducted at 3 W (15° C.) overnight.
For each gel after migration, image capture was immediately conducted using Master Imager (GE Helthcare UK Ltd. Buckinghamshire, UK), at a wavelength corresponding to each Cy. The excitation wavelengths of Cy5, Cy3 and Cy2 were set at 625 nm, 480 nm and 425 nm, respectively, and their fluorescence wavelengths were set at 680 nm, 540 nm and 480 nm, respectively.
In the case of the sample obtained by mixing before electrophoresis, the recognition of spots of captured image and the quantitative determination and comparison between Cys in one gel were conducted using Decyder-DIA Soft (GE Helthcare UK Ltd. Buckinghamshire, UK). The matching of spots with the reference map of rat liver protein (2-D data base formed in-house by identifying rat liver 724 spots) was conducted using Decyder-BVA soft (GE Helthcare UK Ltd. Buckinghamshire, UK). When each sample after Cy labeling was independently subjected to electrophoresis, the quantitative determination of each spot and the matching of spots were conducted using PDQuest (Bio-Rad Laboratories, Inc.).
For the spots of the 127 proteins and their modified proteins, there was calculated a base 2 logarithm [log2(αx/αc)] of the ratio (αx/αc) of the expression amount (αx) of the comparative sample and the expression amount (αc) of the control sample. Then, a difference in logarithms was calculated between spots derived from one protein. The calculation of difference in logarithms was made for all combinations of spots derived from one protein. […]

[5] = SVM prediction of liver cell hypertrophy, training set, top-ranked 20 sets of post-translational modification data

SMILES	Carcinogenicity ([1]; in vivo)	Finding of hepatocyte hypertrpy [2]	pathology of liver cell hypertrophy in the liver [2]	Prediction result [3]	further results
Oc1cccc2cccnc12 [8-Hydrxyquinoline]	−	−	no pathology of liver cell hypertrophy was seen	−1 CORRECT	
ClC1=C(Cl)C2(Cl)C3C4C=CC(C4)C3C1(Cl)C2(Cl)Cl (stereo not drawn) [Aldrin]	+	−	no pathology of liver cell hypertrophy was seen	−1 CORRECT	
COc1ccc(O)c(C(C)(C)C)c1 [Butylated hydroxyanisole]	+	−	no pathology of liver cell hypertrophy was seen	−1 CORRECT	
ClC(Cl)(Cl)Cl [Carbon tetrachloride]	+	−	no pathology of liver cell hypertrophy was seen	−1 CORRECT	
OC[C@@H](O)[C@@H](O)[C@H](O)[C@H](O)CO [D-mannitol]		−	no pathology of liver cell hypertrophy was seen		Carcinogenicity ([1]; known carcinogenicity of chemical, Tables 1 to 3): −; Carcinogenicity ([1]; known carcinogenicity of chemical, Tables 8 to 11): −; Prediction result [3, 5]: −1 CORRECT
CCCCC(CC)COC(=O)c1ccccc1C(=O)OCC(CC)CCCC (stereo not drawn) [Di(2-ethylhexyl)phthalate]	+	+	pathology of liver cell hypertrophy was seen		Prediction result [3, 5]: −1 (−1 and 1 indicates the incorrectly predicted compounds)
CCN(CC)N=O [Diethylnitrosamine]	+	−	no pathology of liver cell hypertrophy was seen	−1 CORRECT	
c1ccoc1 [Furan]	+	+	pathology of liver cell hypertrophy was seen	−1	
IC(I)I [Iodoform]	−	+			Prediction result [3, 5]: +1 CORRECT
O=NN1CCOCC1 [N-nitrosomorpholine]	+	−	no pathology of liver cell hypertrophy was seen	−1 CORRECT	Difference of log2(αx/αc) ([4]; ATP synthase alpha chain, spots 1064-1096, absolute value): 1.824; Difference of log2(αx/αc) ([4]; Carbonate dehydrogenase III, spots 2098-2113, absolute value): 1.038; Difference of log2(αx/αc) ([4]; Cytoskeleton I type keratin-19, spots 1174-1447, absolute value): 1.451; Difference of log2(αx/αc) ([4]; Cytoskeleton II type keratin-8, spots 1068-1481, absolute value): 1.344; Difference of log2(αx/αc) ([4]; Heat shock protein 60 kDa, spots 941-974, absolute value): 1.910; Difference of log2(αx/αc) ([4]; Hydroxyglutaryl-CoA synthase, spots 1215-1216, absolute value): 0.948; Difference of log2(αx/αc) ([4]; MAWD binding protein, spots 2032-2036, absolute value): 1.256; Difference of log2(αx/αc) ([4]; Non-muscle type caldesmon, spots 628-654, absolute value): 1.618; Difference of log2(αx/αc) ([4]; RIKEN cDNA 0610010D20, spots 1708-1753, absolute value): 1.349; Difference of log2(αx/αc) ([4]; Transketorase, spots 789-813, absolute value): 1.074
c1ccc2ncccc2c1 [Quinoline]	+	−	no pathology of liver cell hypertrophy was seen		Prediction result [3, 5]: −1 CORRECT
C=CCc1ccc2c(c1)OCO2 [Safrole]	+	+	pathology of liver cell hypertrophy was seen	+1 CORRECT	
ClC=C(Cl)Cl [Trichloroethylene]	+	−	no pathology of liver cell hypertrophy was seen	−1 CORRECT	
Cl[C@H]1[C@H](Cl)[C@H](Cl)[C@@H](Cl)[C@H](Cl)[C@H]1Cl [α-Hexachlorocyclohexane]	+	+	pathology of liver cell hypertrophy was seen	+1 CORRECT	
